The source of these data is US8841121B2, “Vector, vector combinations, methods and kit thereof” (Jawaharlal Nehru Centre for Advanced Scientific Research, priority 2010, dated 2014).

“Also recorded” adds a separate entry of the source.

Data set [1] concerns the target T1, Tat (Human immunodeficiency virus type 1 group M subtype B, UniProt P35965). The experiment in a line: Tat-inducible GFP / anti-RFP shRNA reporter assay, transient transfection in HeLa cells. The note with it: 25 μM, 24 h. The format is cell-based, HIV-1. Also noted: The full-length Tat cDNA from molecular clone YU-2 (subtype-B) is made from cellular RNA of 293 cells; expressed in transfected cells; pcDNA3.1 CMV-Tat (YU-2) or EF-1α-Tat (YU-2) vector. The protocol: HeLa cells are transiently transfected with pPRIME-LTR-GFP: anti-RFP miRNA (p604.344 and p604.620), CMV-RFP and EF-1α-Tat (YU-2) vectors. Cells are treated with 25 μM DRB. GFP and RFP expression is recorded 24 h after vector transfection.
(§1) Vector DNA Transfection: All the proof-of-the-concept assays embedded in this document are performed using the transient transfection method formats. Most of the experiments are done using host cells such as HEK293 cells and preferably the standard calcium transfection protocol. Further, few experiments are also performed using HeLa cells. A commercial lipid formulation is used for this and is used following the suppliers instructions.
The assay also identifies SMI which inhibit cellular factors needed for Tat. 5,6-Dichlorobenzimidazole Riboside (DRB) is a potent inhibitor of CDK9 which is a cellular factor necessary for Tat function. […] Thus the assay of the present disclosure also identify such SMI that have an indirect effect on Tat function.

In data set [2] the test system is HEK 293 cells. Nature of the data set: Cytotoxicity / cell death by light microscopy in transfected HEK 293 cells. The note with it: for Cytotoxicity / cell death (light microscopy): HEK 293 cells, increasing concentrations of the inhibitor. The format is cell-based. The protocol:
Tat up-regulates GFP expression (middle panels). […] Thus, a cytotoxic molecule down-regulates GFP without being a Tat inhibitor.
293 cells are transiently transfected with pPRIME-LTR-GFP: anti-RFP miRNA (p604.344 and p604.620), CMV-RFP and EF-1α-Tat (YU-2) vectors. Cells are treated with different concentrations of the SMI 24 h after transfection. GFP and RFP expression is recorded 24 h after vector transfection. LM, Light microscopy.
(§2) DRB (5, 6-dichloro-1-beta-D-ribofuranosylbenzimidazole) a small molecule inhibitor, blocks an essential cellular enzyme CDK9, a kinase, critical for general transcription of many genes and therefore is cytotoxic. […] The Tat inhibition potential as well as cytotoxicity of DRB at 3 different concentrations is tested in HEK 293 cells using plasmid combinations as defined in Table-2. Images of the cells are captured using light microscopy, GFP or RFP filters at 36 h. […] Thus, the GFP-based assay identifies false hits, but not the instant RFP-based assay.

Data set [3] addresses T1, Tat. The experiment in a line: Tat-inducible GFP / anti-RFP shRNA reporter assay, transient transfection in HEK293 cells. The format is cell-based, HIV-1. On the set-up: The full-length Tat cDNA from molecular clone YU-2 (subtype-B) is made from cellular RNA of 293 cells; expressed in transfected cells; host or cells: HEK293 (293) cells, transient transfection; pcDNA3.1 CMV-Tat (YU-2) or EF-1α-Tat (YU-2) vector. The protocol: as §1
siRNA Transfection: Anti-Tat siRNA molecules are introduced into cells using a commercial lipid-nanoparticle formulation as per the instructions from the supplier.
Adding Tat Inhibitors to the Cell and Screening to Identify Anti-viral/Tat Molecules: The assays are performed using the following format although several variations are introduced depending on the need. • a) Cell Plating: Cells are plated in 96-well culture plates the previous evening and on the morning of the experiment, they are at 30-40% occupancy and in the logarithmic growth phase. • b) DNA Vector Transfection: A combination of 4 vectors is used in most of the assays. The total DNA concentration ranged from 1 to 2 μg per a 24-well plate or 100-200 ng per 96-well plate depending on the context. • 1. Anti-RFP siRNA vector (pPRIME-LTR-GFP: anti-RFP miRNA (p604.344):100-600 ng • 2. Anti-RFP siRNA vector (pPRIME-LTR-GFP: anti-RFP miRNA (p604.620): 100-600 ng • 3. CMV-Tat (YU-2) vector:50-200 ng • 4. CMV-RFP vector (pCMV-RFP-IRES-Puro) (FIGS. 21):50-200 ng
Cells are monitored for GFP or RFP expression after 24 h after subjected to an anti-Tat compound.
Anti-Tat Compound Treatment: A small molecule inhibitor (at concentrations mentioned in individual experiments above) or anti-Tat siRNA (20-100 ng per well) are used. The anti-Tat agent is used immediately after plasmid DNA transfection or after 12-24 h. Cells are removed from the wells by trypsinization and made into single cell suspension in phosphate buffered saline. The mean fluorescence intensity of the cells was determined using flow cytometry. Alternatively, cells were removed from the well using trypsinization and suspended in PBS. The intensity of the fluorescence was quantitatively determined using a standard fluorimeter. Fluorescent protein gene expression is measured at 24, 36, 48 and 72 h from vector transfection, at one time point or multiple time points.
as §2

In data set [4] the target is T2, Tat (Human immunodeficiency virus type 1 group M subtype B, UniProt P04608).
T2 construct: host or cells: HeLa cells
The note with it: HeLa cells, increasing concentration; cited from earlier work.

Where [5] appears, read: HEK 293 cells, with Tat, increasing/different concentrations of the inhibitor.

T1 sequence (P35965 whole entry): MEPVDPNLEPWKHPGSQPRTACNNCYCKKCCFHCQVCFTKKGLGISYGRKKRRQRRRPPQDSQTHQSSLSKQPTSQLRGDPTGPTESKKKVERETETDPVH
T2 sequence (P04608 whole entry): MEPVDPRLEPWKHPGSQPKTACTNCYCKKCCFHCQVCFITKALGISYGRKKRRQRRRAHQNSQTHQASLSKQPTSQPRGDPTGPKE

For `OC[C@H]1O[C@@H](n2cnc3cc(Cl)c(Cl)cc32)[C@H](O)[C@@H]1O` [DRB, 5,6-dichloro-1-beta-D-ribofuranosylbenzimidazole], in data set [1], the GFP expression entry was “relative down regulation of GFP” and the RFP expression entry is recorded as “relieves Tat-mediated RFP suppression; also recorded: relieves RFP gene expression”. The “Cytotoxicity / cell death (light microscopy)” value (“Cytotoxicity / cell death” below) in data set [2] is recorded as “enhanced cell death with increasing concentrations; also recorded: increasing levels of cytotoxicity; also recorded: significant levels of cell death”. In data set [3] (setting [5]), the GFP expression result is “GFP expression also is reduced; also recorded: progressive reduction in GFP expression; also recorded: progressive down-regulation of GFP expression” and the RFP expression entry is given as “should have been up-regulated, which is not the case here; also recorded: no concomitant up-regulation of RFP expression”.

As to `CN1CC[C@H](c2c(O)cc(O)c3c(=O)cc(-c4ccccc4Cl)oc23)[C@H](O)C1` [Flavipiridol], the “Cytotoxicity / cell death” value in data set [2] is reported as “progressive increase in cytotoxicity”.

Consider `COc1ccc(C(=O)C2=C3OC(C)(C)[C@@H](CC=C(C)C)C[C@@]34C[C@@H](CC=C(C)C)C(C)(C)[C@@](CC=C(C)C)(C2=O)C4=O)cc1O` [LTK14], for which the “Cytotoxicity / cell death” value in data set [2] is “progressively increased cell death”. Further, in data set [3] (setting [5]), the GFP expression entry is on record as “down regulation of GFP” and the RFP expression result is recorded as “not enhanced RFP expression”.

For the molecule `O=C1CN=C(c2ccc[nH]2)c2cc(Cl)ccc2N1` [R05-3335], the GFP expression entry in data set [4] is reported as “GFP expression is down-regulated”.

Consider `CC[C@H](CO)Nc1nc(NCc2ccccc2)c2ncn(C(C)C)c2n1` [Roscovitine], for which, in data set [2] (293 cells, 3 μM), the Cytotoxicity entry was “cytotoxicity”. Besides, in data set [3] (293 cells, 3 μM, 48 h), the GFP expression result is given as “reduced expression of GFP” and the RFP expression entry is given as “not in enhanced expression of RFP”.

With `COc1cccc2c1C(=O)c1c(O)c3c(c(O)c1C2=O)C[C@@](O)(C(C)=O)C[C@@H]3O[C@H]1C[C@H](NCc2ccc(CN[C@H]3C[C@H](O[C@H]4C[C@](O)(C(C)=O)Cc5c(O)c6c(c(O)c54)C(=O)c4c(OC)cccc4C6=O)O[C@@H](C)[C@H]3O)cc2)[C@H](O)[C@H](C)O1` [WP631], the “Cytotoxicity (cell density under light microscopy)” value in data set [2] (293 cells, WP631 treatment (100 nM)) was “Low level cytotoxicity”. Besides, in data set [2], the “Cytotoxicity / cell death” value was “toxic to the cell at higher concentrations; also recorded: causes apoptosis at higher concentrations”. Moreover, the RFP expression entry in data set [3] (293 cells, 100 nM) is given as “partially relieves Tat-mediated inhibition of RFP”. In data set [3] (setting [5]), the GFP expression result is reported as “marginally reduced GFP expression; also recorded: marginal down regulation of GFP” and the RFP expression entry is recorded as “small relief in RFP suppression is evident, this is not significant; also recorded: insignificant levels of up-regulation of RFP; also recorded: partially relieves RFP gene expression”.
